Inhibition data for 30 compounds are collected here from patent US5945450A, “Naphthalene derivative” (Teijin Limited, priority 1994, dated 1999).

What all share (format): cell-based
The test system of one assay is human IgG antibodies. Description: In vitro inhibition of human IgG antibody production (lymphocytes + IL-4 + anti CD40Ab + IL-10, ELISA). As to conditions: Lymphocyte, 3 μM. The protocol:
(§1) According to the method described in J. Immunol., 146:1836-1842, 1991 and J. Immunol., 147:8-13, 1991, the concentrations of IgE and IgG antibodies were measured by the procedures described below.
(§2) Peripheral venous blood was sampled from the healthy person, and submitted to density-gradient centrifugation to isolate lymphocytes. The lymphocytes thus obtained were washed and suspended in a culture medium (RPMI-1640 (provided by Gibco)+10% heat-inactivated FCS (Whittaker)+100 µg/ml streptomycin+100 U/ml penicillin+2mM L-glutamine). The cell suspensions were cultured for 1 week in the presence/absence of the compounds of this invention at the concentrations as described in Tables 3-1 to 3-2 together with human interleukin 4 (IL-4, Genzyme)([…]), anti CD40 antibodies (anti CD40Ab, Biosource, clone B-B20)([…]) and human interleukin 10 (IL-10, Genzyme)([…]). The culture medium was supplied freshly to the cell suspension, and the mixture was further cultured for another week. The supernatant was sampled and the concentrations of IgE and IgG antibodies therein were measured by sandwich ELISA.
(§3) The ELISA was based, for the assay of IgE antibodies, on the use of rabbit anti-human IgE() antibodies (ICN) as the primary antibody and biotin-linked anti-human IgE monoclonal antibodies (G7-26, PharMingen) as the secondary antibody. For the assay of IgG antibodies, anti-human IgG monoclonal antibodies (G18-145, PharMingen) and biotin-linked donkey anti-human IgG antibodies (H+L)(Jackson) were used for the primary and secondary antibodies, respectively. For the assay of both IgE and IgG antibodies, Avidin-Biotin-Horse Radish Peroxidase (ABC kit, Vector Lab) and TMB (3,3',5,5'-tetramethylbenzidine) microwell peroxidase substrate system (Kirkegaard & Perry Laboratories Inc.) were used as the enzyme and the substrate, respectively. The assays were made by the use of conventionally known ELISA.
(§4) The inhibitory effect (%) of a given compound of this invention on the production of the antibody was calculated with respect to the concentration of the same antibody when the compound was not coexistent (refer to Uejima et al., American Academy of Allergy and Immunology, Proceedings of 1995 Annual Meeting, Program No. 818).

Another assay deals with TF (tissue factor). In words: Inhibitory effects on the TF production in LPS-stimulated human peripheral blood monocytes. The conditions noted are these: Monocyte, LPS 1 μg/ml, 16 hours. The protocol:
Peripheral venous blood was sampled from the healthy person, and submitted to density-gradient centrifugation so that monocytes might be isolated. The monocytes thus obtained were washed with minimum essential medium (MEM, Gibco) and suspended in a culture medium (RPMI-1640(Gibco)+25 mM HEPES buffer+100 μg/ml streptomycin+100 U/ml penicillin G+2 mM L-glutamine) to give a suspension with a density of 1×10^6 cells/ml. A 0.15 ml of the cell suspension was placed onto each of the wells of a 96-well microplate, to which the compound of this invention as described in Tables 4-1 to 4-2 was added (0.05 ml of the culture medium), and the assembly was placed for 1 hour in a CO2 incubator for cultivation. Then, LPS (lipopolysaccarides, E. coli 0111B4, Difco) 1 μg/ml was added thereto, and the assembly was further cultured for 16 hours. After the supernatant being removed, the residue was washed with physiological saline, 0.1 ml of 16 mM OG (n-octyl-β-D-glucopyranoside) was added thereto, and the assembly was stirred to make TF soluble. A 0.2 ml of physiological saline was added to each residue (final dilution was […]) and this preparation was used for determination of the coagulation stimulating activity (TF-like activity). The test compound had been dissolved in DMSO to give a 0.1 M solution which was diluted with the culture medium prior to use. The final concentration of DMSO was 0.01% or less.
To each well of the microplate, 50 μl of human plasma and 50 μl of the test sample prepared as above for determination of the coagulation stimulating activity, or 50 μl of standard thromboplastin (human thromboplastin, Thromborel S, Behringwerke) were added. The microplate was incubated at 37° C. for 5 minutes, to which was added 25 mM CaCl2 (50 μl/well) containing phosphorous lipids (Platelin, Organon Teknica) at a concentration of […] to initiate coagulation. Coagulation was determined on the basis of absorption at 540 nm, and the measurement lasted 7 to 20 minutes. The data were analyzed with a data analyzing software SOFTMax (Molecular Devices) and the maximum rate time was taken as the coagulation time. The logarithmic values of the coagulation times and standard thromboplastin concentrations are plotted, and a regression parabola was drawn among the dots to give a test curve. From the curve, the inhibitory effect (%) of a given test compound on TF production was calculated. (Refer to J. Imnmunol. Methods, 133:21-29, 1990, and Proc. Natl. Acad. Sci. USA, 89:10370-10374, 1992).

For the next assay, the system named is human IgE antibodies. Description: In vitro inhibition of the production of human IgE antibodies (lymphocytes + IL-4 + anti CD40Ab + IL-10, ELISA). As to conditions: Lymphocyte, 3 μM, read-out: Inhibition of antibody production (%) IgE. The protocol: as §1, §2, §3, §4

Each structure is given as a SMILES string.

As to `O=C(Nc1ccccc1C(=O)O)c1ccc(Sc2ccc3ccccc3c2)cc1` [compound 3102], the values for the inhibition at 3 µM with human IgG antibodies, with TF (tissue factor) and with human IgE antibodies were -2.8%, 100% and 19.9%, respectively.

Regarding `O=C(Nc1ccccc1C(=O)O)c1ccc(C(=O)c2ccc3ccccc3c2)cc1` [compound 7102], the inhibition at 3 µM in the assay on human IgG antibodies turned out to be 5.4%; in the assay with TF (tissue factor), 10.6%; in the assay on human IgE antibodies, 15.4%. In the assay with TF (tissue factor), the inhibition at 10 µM came to 81.1%.

On to `O=C(Nc1ccccc1C(=O)O)c1ccc(Oc2ccc3ccccc3c2)c(C(=O)O)c1` [compound 1120], for which the inhibition at 3 µM worked out at 13.6% in the assay with human IgG antibodies and 19.9% in the assay on human IgE antibodies.

As to `O=C(Cc1ccc(Oc2ccc3cc(OC4CCCCC4)ccc3c2)cc1)Nc1ccccc1C(=O)O` [compound 1212], the inhibition at 3 µM with human IgG antibodies stood at 74.6%; in the assay on human IgE antibodies, 89.1%.

As for `O=C(Nc1ccccc1C(=O)O)c1ccc(Oc2ccc3ccccc3c2)c(C(=O)Nc2ccccc2C(=O)O)c1` [compound 1122], the inhibition at 3 µM in the assay on human IgG antibodies was found to be 9.7%; in the assay on human IgE antibodies, 59.9%.

In the case of `O=C(Nc1ccccc1C(=O)O)c1ccc(Oc2cccc3ccccc23)cc1` [compound 1111], the inhibition at 3 µM in the assay with human IgG antibodies turned out to be 20%; in the assay on TF (tissue factor), 96.2%; with human IgE antibodies it was 38%. In addition, the inhibition at 1 µM in the assay with TF (tissue factor) is -9%. Moreover, in the assay on TF (tissue factor), the inhibition at 10 µM stood at 100%.

With `O=C(Cc1ccc(Oc2ccc3cc(OCc4ccc5ccccc5c4)ccc3c2)cc1)Nc1ccccc1C(=O)O` [compound 1228], the inhibition at 3 µM came out at 42.4% in the assay on human IgG antibodies and 98.9% in the assay with human IgE antibodies.

On to `O=C(Cc1ccc(Oc2ccc3cc(O)ccc3c2)cc1)Nc1ccccc1C(=O)O` [Compound No. 1208, 2-(4-(6-hydroxy-2-naphtyloxy)phenylacetamide)benzoic Acid], for which the inhibition at 3 µM in the assay on human IgG antibodies is -8.4%; in the assay on human IgE antibodies, 86.2%.

Take `O=C(Cc1ccc(Oc2ccc3cc(OCc4ccccc4)ccc3c2)cc1)Nc1ccccc1C(=O)O` [compound 1224]: the values for the inhibition at 3 µM in the assay with human IgG antibodies and with human IgE antibodies were 83.2% and 78.6%, respectively.

With `O=C(Nc1ccccc1)c1ccc(Oc2ccc3ccccc3c2)cc1` [Compound No. 1105, N-phenyl-4-(2-naphtyloxy)benzamide], the figures for the inhibition at 3 µM in the assay with human IgG antibodies and in the assay on human IgE antibodies were -6.4% and 42.4%, respectively.

As to `COC(=O)c1ccccc1NC(=O)c1ccc(Oc2ccc3ccccc3c2)cc1` [Compound No. 1101, 2-(4-(2-naphthyloxy)benzamide)benzoic Acid Methyl Ester], the figures for the inhibition at 3 µM with human IgG antibodies and in the assay on human IgE antibodies were -2.8% and 30.3%, respectively.

With `O=C(Nc1ccccc1-c1nnn[nH]1)c1ccc(Oc2ccc3ccccc3c2)cc1` [Compound No. 1109, 1-(4-(2-naphtyloxy)benzamide)-2-(tetrazol-5-yl)benzene], in the assay on TF (tissue factor), the inhibition at 1 µM came to 74.9%, the inhibition at 3 µM amounted to 99.4% and the inhibition at 10 µM was determined as 99.7%.

As to `O=C(CCc1ccc(Oc2ccc3ccccc3c2)cc1)Nc1ccccc1C(=O)O` [compound 1146], in the assay with TF (tissue factor), the inhibition at 3 µM was 23.5%.

With `O=C(Nc1ccccc1C(=O)O)c1ccc(CSc2ccc3ccccc3c2)cc1` [compound 6102], in the assay with TF (tissue factor), the inhibition at 3 µM was 75.8% and the inhibition at 10 µM was determined as 100%.

On to `O=C(Nc1ccccc1C(=O)O)c1ccc(Oc2ccc3cc(OCc4ccccc4)ccc3c2)cc1` [compound 1206], for which the results for the inhibition at 3 µM in the assay with human IgG antibodies and in the assay with human IgE antibodies were 11.5% and 84%, respectively.

As to `COC(c1ccc(C(=O)Nc2ccccc2C(=O)O)cc1)c1ccc2ccccc2c1` (stereo not shown) [compound 8102], the inhibition at 3 µM with human IgG antibodies came out at 9.7%; in the assay with human IgE antibodies it was 60%.

Consider `C=CCOc1ccc2cc(Oc3ccc(CC(=O)Nc4ccccc4C(=O)O)cc3)ccc2c1` [compound 1218], for which the inhibition at 3 µM was determined as 47.8% with human IgG antibodies and 91.4% in the assay on human IgE antibodies.

Turning to `O=C(Nc1ccccc1C(=O)O)c1ccc(Oc2ccc3cc(O)ccc3c2)cc1` [Compound No. 1202, 2-(4-(6-hydroxy-2-naphtyloxy)benzamide)benzoic Acid], the inhibition at 3 µM in the assay with human IgG antibodies is -8.7%; with TF (tissue factor), 33.4%; in the assay on human IgE antibodies it was 76.6%.

Regarding `NS(=O)(=O)c1ccccc1NC(=O)c1ccc(Oc2ccc3ccccc3c2)cc1` [Compound No. 1107, 2-(4-(2-naphtyloxy)benzamide)benzenesulfonamide], the inhibition at 3 µM is -17.2% in the assay on human IgG antibodies and 44.9% with human IgE antibodies.

Regarding `CC(C)(C)Oc1ccc2cc(Oc3ccc(CC(=O)Nc4ccccc4C(=O)O)cc3)ccc2c1` [compound 1210], the inhibition at 3 µM came to 59.9% with human IgG antibodies and 92.8% with human IgE antibodies.

As to `Nc1cc(C(=O)Nc2ccccc2C(=O)O)ccc1Oc1ccc2ccccc2c1` [Compound No. 1118, 2-(3-amino-4-(2-naphtyloxy)benzamide)benzoic Acid], the inhibition at 3 µM with human IgG antibodies is -12.9%; with TF (tissue factor), 86.9%; in the assay with human IgE antibodies, 77.2%.

Take `O=C(Cc1ccc(COc2ccc3ccccc3c2)cc1)Nc1ccccc1C(=O)O` [compound 5104]: the inhibition at 3 µM turned out to be 1.6% in the assay on human IgG antibodies and 51.4% in the assay with human IgE antibodies.

Regarding `O=C(Nc1ccccc1C(=O)O)c1cccc(Oc2ccc3ccccc3c2)c1` [compound 1113], in the assay on TF (tissue factor), the inhibition at 1 µM came to 25.3%, the inhibition at 3 µM was found to be 83.6% and the inhibition at 10 µM was 100%.

In the case of `O=C(Nc1ccccc1O)c1ccc(Oc2ccc3ccccc3c2)cc1` [Compound No. 1106, 2-(4-(2-naphtyloxy)benzamide)phenol], the figures for the inhibition at 3 µM with human IgG antibodies and with human IgE antibodies were -25.3% and 42.6%, respectively.

On to `O=C(Nc1ccccc1C(=O)O)c1ccc(Cc2ccc3ccccc3c2)cc1` [compound 4103], for which, in the assay on human IgG antibodies, the inhibition at 3 µM is -4.2%. For the same compound, in the assay on TF (tissue factor), the inhibition at 1 µM was found to be 16.5%, the inhibition at 3 µM is 74.4% and the inhibition at 10 µM worked out at 100%. Besides, the inhibition at 3 µM in the assay with human IgE antibodies was 45.5%.

Regarding `O=C(Nc1ccccc1-c1nnn[nH]1)c1ccc(Sc2ccc3ccccc3c2)cc1` [Compound No. 3104, 1-(4-(2-naphtylthio)benzamide)-2-(tetrazol-5-yl)benzene], the inhibition at 3 µM with TF (tissue factor) worked out at 96.9%.

Consider `O=C(C=Cc1ccc(Oc2ccc3ccccc3c2)cc1)Nc1ccccc1C(=O)O` [compound 1148], for which the inhibition at 3 µM worked out at 10.3% in the assay with human IgG antibodies, 92.9% with TF (tissue factor) and 25.5% in the assay with human IgE antibodies.

For `CC(C(=O)Nc1ccccc1C(=O)O)c1ccc(Oc2ccc3ccccc3c2)cc1` (stereo not shown) [compound 1150], the inhibition at 3 µM in the assay on human IgG antibodies came out at 3.3%; with human IgE antibodies, 64.4%.

On to `O=C(Nc1ccccc1C(=O)O)c1ccc(COc2ccc3ccccc3c2)cc1` [compound 5102], for which, in the assay with TF (tissue factor), the inhibition at 1 µM was 19.8%, the inhibition at 3 µM worked out at 74.1% and the inhibition at 10 µM was determined as 99.9%.

With `COC(=O)c1ccccc1NC(=O)Cc1ccc(Oc2ccc3ccccc3c2)cc1` [compound 1123], the inhibition at 3 µM with human IgG antibodies was -0.8%; in the assay with human IgE antibodies, 21.7%.
